Counter-ions that a name gives are not always drawn.

The first experiment concerns the target T1, BRD4 BD2 (Homo sapiens, UniProt O60885, Y97A).
T1 construct: BRD4 (1-477) (Y97A) and (Y390A); made in house; host or cells: E. coli (pET15b vector)
In words: BRD4 BD2 mutant TR-FRET competition assay. The class given is binding. Conditions: average of N recorded values, read-out: BRD4 BD2 IC50 (average value) (converted). Background: Time-resolved FRET reads energy transfer from a long-lived donor to a nearby acceptor.
For the compound `CNC(=O)c1cc(C(=O)NCCCC2CCN(CCO)CC2)cn(Cc2ccccc2)c1=O` [Example 25], the IC50 is 39.8 nM.
Same read-out and setting: the same measure for `CNC(=O)c1cc(C(=O)NCCCC2CCN(CCF)CC2)cn(Cc2ccccc2)c1=O` [Example 29, 1-Benzyl-N^5-(3-(1-(2-fluoroethyl)piperidin-4-yl)propyl)-N^3-methyl-2-oxo-1,2-dihydropyridine-3,5-dicarboxamide. formic acid salt]: 25.1 nM.
On the same count and under the same terms, the same measure for `CNC(=O)c1cc(C(=O)NCCCC2CCNCC2)cn(Cc2cccc(OCCO)c2)c1=O` [Example 23, 1-(3-(2-Hydroxyethoxy)benzyl)-N^3-methyl-2-oxo-N^5-(3-(piperidin-4-yl)propyl)-1,2-dihydropyridine-3,5-dicarboxamide]: 50.1 nM; for `CNC(=O)c1cc(C(=O)NCCC[C@H]2OC[C@H](N)CO2)cn(Cc2ccccc2)c1=O` [Example 88, N^5-(3-((2r,5r)-5-Amino-1,3-dioxan-2-yl)propyl)-1-benzyl-N^3-methyl-2-oxo-1,2-dihydropyridine-3,5-dicarboxamide]: 50.1 nM.
On to `CNC(=O)c1cc(C(=O)NCCCC2CCNCC2)cn(Cc2cccc3[nH]ccc23)c1=O` [Example 30, 1-((1H-Indol-4-yl)methyl)-N^3-methyl-2-oxo-N^5-(3-(piperidin-4-yl)propyl)-1,2-dihydropyridine-3,5-dicarboxamide], for which the IC50 was 10 nM.

The same experiment, now with this note: read-out: pIC50 in the BRD4 BD2 assay (converted).
With `CNC(=O)c1cc(C(=O)N[C@H]2[C@@H]3CN(CCNC(C)=O)C[C@@H]32)cn(Cc2cccc3[nH]ccc23)c1=O` [Example 87, 1-((1H-Indol-4-yl)methyl)-N^5-((1R,5S,6s)-3-(2-acetamidoethyl)-3-azabicyclo[3.1.0]hexan-6-yl)-N^3-methyl-2-oxo-1,2-dihydrouridine-3,5-dicarboxamide], the IC50 is at most 100 nM.
On the same count and under the same terms, the same measure for `CNC(=O)c1cc(C(=O)NC2COC2)cn(Cc2ccccc2)c1=O` [Example 91, 1-benzyl-N^3-methyl-N^5-(oxetan-3-yl)-2-oxo-1,2-dihydropyridine-3,5-dicarboxamide]: 100 to 1000 nM; for `CNC(=O)c1cc(C(=O)N[C@H]2[C@@H]3CNC[C@@H]32)cn(Cc2cccc3[nH]ccc23)c1=O` [Example 80]: at most 100 nM.
As to `CNC(=O)c1cc(C(=O)NCCCC2CCNCC2)cn([C@H](C)c2ccccc2)c1=O` [Example 17, (R)-N^3-Methyl-2-oxo-1-(1-phenylethyl)-N^5-(3-(piperidin-4-yl)propyl)-1,2-dihydropyridine-3,5-dicarboxamide], the IC50 was at most 100 nM.
Same read-out and setting: the same measure for `CNC(=O)c1cc(C(=O)NCCCC2CCN(CCO)CC2)cn(Cc2ccccc2)c1=O` [Example 25]: at most 100 nM; for `CCNC(=O)c1cc(C(=O)NCCC[C@]2(F)CCCNC2)cn(Cc2ccccc2)c1=O` [Example 82]: at most 100 nM; for `CNC(=O)c1cc(C(=O)NCCCN2CCNCC2)cn(Cc2ccccc2)c1=O` [Example 12, 1-Benzyl-N^3-methyl-2-oxo-N^5-(3-(piperazin-1-yl)propyl)-1,2-dihydropyridine-3,5-dicarboxamide, hydrochloride]: at most 100 nM.
As for `CNC(=O)c1cc(C(=O)NCCCC2CCN(CCF)CC2)cn(Cc2ccccc2)c1=O` [Example 29, 1-Benzyl-N^5-(3-(1-(2-fluoroethyl)piperidin-4-yl)propyl)-N^3-methyl-2-oxo-1,2-dihydropyridine-3,5-dicarboxamide. formic acid salt], the IC50 was at most 100 nM.
The same measure, in the same setting: the same measure for `CNC(=O)c1cc(C(=O)N[C@H]2[C@@H]3CN(C(C)=O)C[C@@H]32)cn(Cc2cccc3[nH]ccc23)c1=O` [Example 81, 1-((1H-Indol-4-yl)methyl)-N^5-((1R,5S,6s)-3-acetyl-3-azabicyclo[3.1.0]hexan-6-yl)-N^3-methyl-2-oxo-1,2-dihydropyridine-3,5-dicarboxamide]: at most 100 nM.
As for `CNC(=O)c1cc(C(=O)NCCCN2CCN(C)CC2)cn(Cc2ccccc2)c1=O` [Example 51, 1-Benzyl-N^3-methyl-N^5-(3-(4-methylpiperazin-1-yl)propyl)-2-oxo-1,2-dihydropyridine-3,5-dicarboxamide], the IC50 was 100 to 1000 nM.
Same read-out and setting: the same measure for `CNC(=O)c1cc(C(=O)NC2CN(C)C2)cn(Cc2ccccc2)c1=O` [Example 34, 1-Benzyl-N^3-methyl-N^5-(1-methylazetidin-3-yl)-2-oxo-1,2-dihdyropyridine-3,5-dicarboxamide]: 1000 to 100000 nM; for `CNC(=O)c1cc(C(=O)NCCOC2CCNCC2)cn(Cc2ccccc2)c1=O` [Example 89, 1-benzyl-N^3-methyl-2-oxo-N^5-(2-(piperidin-4-yloxy)ethyl)-1,2-dihydropyridine-3,5-dicarboxamide hydrochloride]: 100 to 1000 nM.
In the case of `CNC(=O)c1cc(C(=O)NCCCN2CCOCC2)cn(Cc2ccccc2)c1=O` [Example 37, 1-Benzyl-N^3-methyl-N^5-(3-morpholinopropyl)-2-oxo-1,2-dihydropyridine-3,5-dicarboxamide], the IC50 was 100 to 1000 nM.
Take `CNC(=O)c1cc(C(=O)NCCCC2CCCN(CCF)C2)cn(Cc2ccccc2)c1=O` (centres unmarked) [Example 71]: the IC50 was at most 100 nM.
Still for that read-out and setting: the same measure for `CNC(=O)c1cc(C(=O)NCCC2CCNCC2)cn(Cc2cccc(OC)c2)c1=O` [Example 20, 1-(3-Methoxybenzyl)-N^3-methyl-2-oxo-N^5-(2-(piperidin-4-yl)ethyl)-1,2-dihydropyridine-3,5-dicarboxamide]: 100 to 1000 nM; for `CNC(=O)c1cc(C(=O)N[C@H]2[C@@H]3COC[C@@H]32)cn(Cc2cccc(OC)c2)c1=O` [Example 72, N5-((1R,5S,6r)-3-Oxabicyclo[3.1.0]hexan-6-yl)-1-(3-methoxybenzyl)-N^3-methyl-2-oxo-1,2-dihydropyridine-3,5-dicarboxamide]: at most 100 nM.
On the same count and under the same terms, the same measure for `CNC(=O)c1cc(C(=O)NCCC2CCNCC2)cn(Cc2cccc(C)c2)c1=O` [Example 16, N^3-Methyl-1-(3-methylbenzyl)-2-oxo-N^5-(2-(piperidin-4-yl)ethyl)-1,2-dihydropyridine-3,5-dicarboxamide]: at most 100 nM; for `CCN1CCC(CCCNC(=O)c2cc(C(=O)NC)c(=O)n(Cc3ccccc3)c2)CC1` [Example 11, 1-Benzyl-N^5-(3-(1-ethylpiperidin-4-yl)propyl)-N^3-methyl-2-oxo-1,2-dihydropyridine-3,5-dicarboxamide]: at most 100 nM; for `CNC(=O)c1cc(C(=O)NCCCC2CCNCC2)cn(Cc2cccc(OCCO)c2)c1=O` [Example 23, 1-(3-(2-Hydroxyethoxy)benzyl)-N^3-methyl-2-oxo-N^5-(3-(piperidin-4-yl)propyl)-1,2-dihydropyridine-3,5-dicarboxamide]: at most 100 nM.
Still for that read-out and setting: the same measure for `CNC(=O)c1cc(C(=O)NCCCC2CCN(C(=O)OC(C)(C)C)CC2)cn(Cc2ccccc2)c1=O` [Example 5]: 100 to 1000 nM; for `CNC(=O)c1cc(C(=O)N[C@H]2[C@@H]3CN(CCN)C[C@@H]32)cn(Cc2cccc3[nH]ccc23)c1=O` [Example 86, 1-((1H-Indol-4-yl)methyl)-N^5-((1R,5S,6s)-3-(2-aminoethyl)-3-azabicyclo[3.1.0]hexan-6-yl)-N^3-methyl-2-oxo-1,2-dihydropyridine-3,5-dicarboxamide]: at most 100 nM; for `CNC(=O)c1cc(C(=O)NC2CN(S(C)(=O)=O)C2)cn(Cc2ccccc2)c1=O` [Example 90, 1-benzyl-N^3-methyl-N^5-(1-(methylsulfonyl)azetidin-3-yl)-2-oxo-1,2-dihydropyridine-3,5-dicarboxamide]: 100 to 1000 nM.
As to `CNC(=O)c1cc(C(=O)N[C@H]2[C@@H]3CNC[C@@H]32)cn(Cc2ccccc2)c1=O` [Example 76, 1-Benzyl-N^5-((1R,5S,6s)-3-azabicyclo[3.1.0]hexan-6-yl)-N^3-methyl-2-oxo-1,2-dihydropyridine-3,5-dicarboxamide], the IC50 is at most 100 nM.
The same measure, in the same setting: the same measure for `CNC(=O)c1cc(C(=O)NCCCN2CCS(=O)(=O)CC2)cn(Cc2ccccc2)c1=O` [Example 52, 1-Benzyl-N^5-(3-(1,1-dioxidothiomorpholino)propyl)-N^3-methyl-2-oxo-1,2-dihydropyridine-3,5-dicarboxamide]: 100 to 1000 nM; for `CNC(=O)c1cc(C(=O)NCCC[C@H]2OC[C@H](N)CO2)cn(Cc2ccccc2)c1=O` [Example 88, N^5-(3-((2r,5r)-5-Amino-1,3-dioxan-2-yl)propyl)-1-benzyl-N^3-methyl-2-oxo-1,2-dihydropyridine-3,5-dicarboxamide]: at most 100 nM.
The same measure, in the same setting: the same measure for `CNC(=O)c1cc(C(=O)NCCCC2CCN(C(C)=O)CC2)cn(Cc2cccc3[nH]ccc23)c1=O` [Example 74]: at most 100 nM; for `CNC(=O)c1cc(C(=O)NC2CC3OCCCC23)cn(Cc2ccccc2)c1=O` (centres unmarked) [Example 35, 1-Benzyl-N^5-(2-oxabicyclo[4.2.0]octan-7-yl)-N^3-methyl-2-oxo-1,2-dihydropyridine-3,5-dicarboxamide]: 1000 to 100000 nM.
`CNC(=O)c1cc(C(=O)NCC2CCOCC2)cn(Cc2ccccc2)c1=O` [Example 49, 1-Benzyl-N^3-methyl-2-oxo-N^5-((tetrahydro-2H-pyran-4-yl)methyl)-1,2-dihydroopyridine-3,5-dicarboxamide]: the IC50 was 100 to 1000 nM.
The same measure, in the same setting: the same measure for `CCNC(=O)c1cc(C(=O)NCC[C@@H]2CNCCO2)cn(Cc2ccccc2)c1=O` [Example 83, (R)-1-benzyl-N^3-ethyl-N^5-(2-(morpholin-2-yl)ethyl)-2-oxo-1,2-dihydropyridine-3,5-dicarboxamide]: 100 to 1000 nM.
The same measure, in the same setting: the same measure for `CNC(=O)c1cc(C(=O)NCCCC2CCNCC2)cn(Cc2cccc3[nH]ccc23)c1=O` [Example 30, 1-((1H-Indol-4-yl)methyl)-N^3-methyl-2-oxo-N^5-(3-(piperidin-4-yl)propyl)-1,2-dihydropyridine-3,5-dicarboxamide]: at most 100 nM; for `CNC(=O)c1cc(C(=O)NCCCC2CCN(CC(F)F)CC2)cn(Cc2ccccc2)c1=O` [Example 28]: at most 100 nM.
Same read-out and setting: the same measure for `CNC(=O)c1cc(C(=O)NC2CCCS(=O)(=O)C2)cn(Cc2ccccc2)c1=O` (centres unmarked) [Example 42, 1-Benzyl-N^5-(1,1-dioxidotetrahydro-2H-thiopyran-3-yl)-N^3-methyl-2-oxo-1,2-dihdyropyridine-3,5-dicarboxamide]: 1000 to 100000 nM; for `CNC(=O)c1cc(C(=O)NCCOC2CCCNC2)cn(Cc2ccccc2)c1=O` (centres unmarked) [Example 68, 1-benzyl-N^3-methyl-2-oxo-N^5-(2-(piperidin-3-yloxy)ethyl)-1,2-dihydropyridine-3,5-dicarboxamide]: 100 to 1000 nM.
For the compound `CNC(=O)c1cc(C(=O)NCCCC2CCNCC2)cn(Cc2cccc(C)c2)c1=O` [Example 15, N^3-Methyl-1-(3-methylbenzyl)-2-oxo-N^5-(3-(piperidin-4-yl)propyl)-1,2-dihydropyridine-3,5-dicarboxamide], the IC50 is at most 100 nM.
The same measure, in the same setting: the same measure for `CNC(=O)c1cc(C(=O)NCCC2CCN(C)CC2)cn(Cc2ccccc2)c1=O` [Example 3, 1-Benzyl-N^3-methyl-N^5-(2-(1-methylpiperidin-4-yl)ethyl)-2-oxo-1,2-dihydropyridine-3,5-dicarboxamide]: at most 100 nM; for `CNC(=O)c1cc(C(=O)NC[C@@H]2CCCOC2)cn(Cc2ccccc2)c1=O` [Example 47, (S)-1-Benzyl-N^3-methyl-2-oxo-N^5-((tetrahydro-2H-pyran-3-yl)methyl)-1,2-dihydropyridine-3,5-dicarboxamide]: 100 to 1000 nM.

Values taken from US10370356B2, “Pyridinone dicarboxamide for use as bromodomain inhibitors” (GlaxoSmithKline Intellectual Property (No. 2) Limited, priority 2015, dated 2019).
